Source: the supplement of paper PMC11061612

Experiments:
Assay in all cases: Bliss excess, mean over the matrix (fraction); higher = more synergy
[1] = test system: Jurkat (T-Lymphoblastic Leukemia)
Method in brief: (§1)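 Bliss excess equals the observed combination effect minus the expected value EA + EB − EA·EB, where EA and EB are the effects of each agent alone. Combination Emax is the second-highest inhibition within the matrix. Inhibition was scaled from CellTiter-Glo 2.0 luminescence, with 0 set by vehicle wells and 1 by blank wells, after 72 hours of two-drug dosing of cells plated in 1536-well plates.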

[2] = test system: UACC-812 (Breast Carcinoma)
Method in brief: as §1

[3] = test system: HCC1428 (Breast Carcinoma)
Method in brief: as §1

[4] = test system: NCI-H2087 (Lung Adenocarcinoma)
Method in brief: as §1

[5] = test system: CGTH-W-1 (Thyroid Gland Carcinoma)
Method in brief: as §1

[6] = test system: JHH-2 (Hepatocellular Carcinoma)
Method in brief: as §1

[7] = test system: huH-1 (Hepatocellular Carcinoma)
Method in brief: as §1

HCC70 (Breast Carcinoma) = test system: HCC70 (Breast Carcinoma)
Method in brief: as §1

[8] = test system: NCI-H1703 (Squamous Cell Lung Carcinoma)
Method in brief: as §1

RH-41 (Rhabdomyosarcoma) = test system: RH-41 (Rhabdomyosarcoma)
Method in brief: as §1

EB2 (Burkitt's Lymphoma) = test system: EB2 (Burkitt's Lymphoma)
Method in brief: as §1

COLO-792 (Melanoma) = test system: COLO-792 (Melanoma)
Method in brief: as §1

KP-N-YN (Neuroblastoma) = test system: KP-N-YN (Neuroblastoma)
Method in brief: as §1

[9] = test system: KYSE-220 (Esophageal Squamous Cell Carcinoma)
Method in brief: as §1

[10] = test system: NCI-H2228 (Lung Adenocarcinoma)
Method in brief: as §1

A204 (Rhabdomyosarcoma) = test system: A204 (Rhabdomyosarcoma)
Method in brief: as §1

[11] = test system: CAL-27 (Oral Cavity Carcinoma)
Method in brief: as §1

[12] = test system: SK-HEP-1 (Hepatocellular Carcinoma)
Method in brief: as §1

[13] = test system: NCI-H1651 (Lung Adenocarcinoma)
Method in brief: as §1

EW-7 (Ewing's Sarcoma) = test system: EW-7 (Ewing's Sarcoma)
Method in brief: as §1

SMILES	Bliss excess [1]	Bliss excess [2]	Bliss excess [3]	Bliss excess [4]	Bliss excess [5]	Bliss excess [6]	Bliss excess [7]	Bliss excess (HCC70 (Breast Carcinoma))	Bliss excess [8]	Bliss excess (RH-41 (Rhabdomyosarcoma))	Bliss excess (EB2 (Burkitt's Lymphoma))	Bliss excess (COLO-792 (Melanoma))	Bliss excess (KP-N-YN (Neuroblastoma))	Bliss excess [9]	Bliss excess [10]	Bliss excess (A204 (Rhabdomyosarcoma))	Bliss excess [11]	Bliss excess [12]	Bliss excess [13]	Bliss excess (EW-7 (Ewing's Sarcoma))
COc1cccc(OCCCN)c1-c1cc(Nc2cnc(C#N)cn2)n[nH]1 [Prexasertib] + O=C(c1cc(Cc2n[nH]c(=O)c3ccccc23)ccc1F)N1CCN(C(=O)C2CC2)CC1 [Olaparib] (first compound max 1 µM, 7x7, partner max 10 µM)	-0.0054	-0.0395	0.0501	-0.11	-0.0511	-0.0428	0.0434	-0.0503	-0.0537	-0.061	-0.0373	0.0173	-0.245	-0.0238	-0.0834	-0.0675	-0.0113	-0.0127	-0.0471	-0.0465
Cn1cnc2c(F)c(Nc3ccc(Br)cc3Cl)c(C(=O)NOCCO)cc21 [Selumetinib] + CCN(CCO)CCCOc1ccc2c(Nc3cc(CC(=O)Nc4cccc(F)c4)[nH]n3)ncnc2c1 [AZD2811] (first compound max 10 µM, 7x7, partner max 1 µM)	-0.0216	-0.049	0.0269	-0.0497	-0.0329	-0.0193	-0.0492	0.0138	-0.0167	0.0363	-0.0564	-0.0532	0.0253	0.036	-0.0357	-0.0772	-0.0921	-0.0421	-0.0283	-0.0023
Cn1cnc2c(F)c(Nc3ccc(Br)cc3Cl)c(C(=O)NOCCO)cc21 [Selumetinib] + C[C@@H]1COCCN1C2=NC(=NC(=C2)C3(CC3)[S@](=N)(=O)C)C4=C5C=CNC5=NC=C4 [AZD6738] (first compound max 10 µM, 7x7, partner max 10 µM)	-0.0227	-0.0397	-0.0527	-0.0057	-0.0232	0.0264	-0.0551	0.0731	-0.0318	-0.0004	-0.071	0.0362	-0.0431	-0.0446	-0.0098	-0.0363	0.0939	-0.034	-0.0638	0.0112
COc1cccc2c1C(=O)c1c(O)c3c(c(O)c1C2=O)C[C@@](O)(C(=O)CO)C[C@@H]3O[C@H]1C[C@H](N)[C@H](O)[C@H](C)O1 [Doxorubicin] + Cc1cc2ncnn2cc1Nc1ncc2c(n1)n(C1CCOCC1)c(=O)n2C [AZD7648] (first compound max 1 µM, 7x7, partner max 10 µM)	0.181	-0.023	-0.0499	0.0107	0.0333	0.0229	0.102	0.0344	0.0451	0.116	0.0972	-0.0081	0.0805	0.0232	0.0042	0.0782	0.0853	0.0292	0.024	0.0058
CN(C)CCCOc1ccc(-c2ccc3ncc4c(c3c2)n(C2CCOCC2)c(=O)n4C)cn1 [AZD0156] + CCN(CCO)CCCOc1ccc2c(Nc3cc(CC(=O)Nc4cccc(F)c4)[nH]n3)ncnc2c1 [AZD2811] (first compound max 1 µM, 7x7, partner max 1 µM)	0.0543	-0.0171	-0.06	-0.0251	-0.0076	-0.031	0.0049	-0.0184	0.0059	0.0369	-0.0245	0.0167	0.0037	-0.0095	-0.0223	-0.0335	-0.0054	-0.0194	-0.0167	0.0718
Cc1c2c(nn1C)CSCc1cc(n(C)n1)CSc1cc(c3ccccc3c1)OCCCc1c(C(=O)O)n(C)c3c-2c(Cl)ccc13 [AZD5991] + CC1(C)CCC(CN2CCN(c3ccc(C(=O)NS(=O)(=O)c4ccc(NCC5CCOCC5)c([N+](=O)[O-])c4)c(Oc4cnc5[nH]ccc5c4)c3)CC2)=C(c2ccc(Cl)cc2)C1 [Venetoclax] (first compound max 1 µM, 7x7, partner max 1 µM)	0.0116	0.0196	0.0221	-0.0304	-0.012	-0.0156	-0.0534	0.0042	0.0049	0.0582	0.0144	0.0312	0.0865	0.0093	-0.0122	-0.0226	-0.0081	-0.0098	-0.0327	0.0249
COc1nnc2ccc(N3CCC(c4ccc(OCCN5CCN(C)C(=O)[C@H]5C)cc4)CC3)nn12 [AZD5153] + C[C@@H]1COCCN1C2=NC(=NC(=C2)C3(CC3)[S@](=N)(=O)C)C4=C5C=CNC5=NC=C4 [AZD6738] (first compound max 1 µM, 7x7, partner max 10 µM)	0.0601	0.0371	0.0209	0.0404	0.0604	-0.0066	0.031	0.015	0.02	0.0514	-0.0996	0.0774	-0.0174	0.0019	-0.0179	0.042	0.0095	-0.0522	0.0178	0.034
COc1cccc(OCCCN)c1-c1cc(Nc2cnc(C#N)cn2)n[nH]1 [Prexasertib] + CN(C)CCCOc1ccc(-c2ccc3ncc4c(c3c2)n(C2CCOCC2)c(=O)n4C)cn1 [AZD0156] (first compound max 1 µM, 7x7, partner max 1 µM)	-0.0264	-0.0324	-0.0703	-0.0405	-0.0614	-0.0371	-0.0422	-0.0319	-0.0295	-0.0209	-0.0088	-0.0447	0.0202	-0.026	-0.0488	-0.018	-0.0014	-0.0206	-0.107	0.025
CC1(C)CCC(CN2CCN(c3ccc(C(=O)NS(=O)(=O)c4ccc(NCC5CCOCC5)c([N+](=O)[O-])c4)c(Oc4cnc5[nH]ccc5c4)c3)CC2)=C(c2ccc(Cl)cc2)C1 [Venetoclax] + C1CN(CCC1(C(=O)N[C@@H](CCO)C2=CC=C(C=C2)Cl)N)C3=NC=NC4=C3C=CN4 [Capivasertib] (first compound max 1 µM, 7x7, partner max 3 µM)	-0.016	-0.0212	-0.0377	-0.0553	-0.0532	0.0139	-0.0411	-0.0437	0.0192	0.0441	-0.0286	-0.0203	-0.0573	-0.0023	-0.0537	-0.0358	-0.0432	-0.0525	-0.0184	-0.0149
Cc1c2c(nn1C)CSCc1cc(n(C)n1)CSc1cc(c3ccccc3c1)OCCCc1c(C(=O)O)n(C)c3c-2c(Cl)ccc13 [AZD5991] + C[C@@H]1COCCN1C2=NC(=NC(=C2)C3(CC3)[S@](=N)(=O)C)C4=C5C=CNC5=NC=C4 [AZD6738] (first compound max 1 µM, 7x7, partner max 10 µM)	-0.0178	0.0094	-0.0045	-0.0396	0.0117	0.0115	-0.0302	-0.0069	-0.0108	0.014	-0.0097	0.0026	-0.0067	-0.0328	-0.0302	0.0507	0.0358	0.0225	0.0192	0.0266
Cc1c2c(nn1C)CSCc1cc(n(C)n1)CSc1cc(c3ccccc3c1)OCCCc1c(C(=O)O)n(C)c3c-2c(Cl)ccc13 [AZD5991] + C1CN(CCC1(C(=O)N[C@@H](CCO)C2=CC=C(C=C2)Cl)N)C3=NC=NC4=C3C=CN4 [Capivasertib] (first compound max 1 µM, 7x7, partner max 3 µM)	0.0115	0.0196	0.0136	-0.0295	0.0091	0.0621	-0.0149	0.0761	0.0157	-0.0334	-0.0375	0.0076	-0.0382	0.0187	-0.0225	-0.0305	0.0073	0.0194	0.0279	0.0459
Cc1c2c(nn1C)CSCc1cc(n(C)n1)CSc1cc(c3ccccc3c1)OCCCc1c(C(=O)O)n(C)c3c-2c(Cl)ccc13 [AZD5991] + CCN(CCO)CCCOc1ccc2c(Nc3cc(CC(=O)Nc4cccc(F)c4)[nH]n3)ncnc2c1 [AZD2811] (first compound max 1 µM, 7x7, partner max 1 µM)	0.0119	-0.0149	0.0469	-0.0144	0.0439	-0.0213	0.024	-0.0219	0.0139	0.0183	0.0391	-0.0095	0.0556	0.0088	0.0161	0.0358	0.0403	0.0084	-0.0386	0.198
C=CCn1c(=O)c2cnc(Nc3ccc(N4CCN(C)CC4)cc3)nc2n1-c1cccc(C(C)(C)O)n1 [AZD1775] + C1CN(CCC1(C(=O)N[C@@H](CCO)C2=CC=C(C=C2)Cl)N)C3=NC=NC4=C3C=CN4 [Capivasertib] (first compound max 3 µM, partner max 3 µM)	0.185	-0.0007	-0.0203	-0.0287	-0.0278	-0.122	-0.0242	-0.0235	0.0131	-0.0387	-0.0204	0.0596	–	-0.0206	-0.0181	-0.0131	-0.0197	0.0958	-0.0367	0.0149
C=CCn1c(=O)c2cnc(Nc3ccc(N4CCN(C)CC4)cc3)nc2n1-c1cccc(C(C)(C)O)n1 [AZD1775] + O=C(c1cc(Cc2n[nH]c(=O)c3ccccc23)ccc1F)N1CCN(C(=O)C2CC2)CC1 [Olaparib] (first compound max 1 µM, partner max 10 µM)	-0.0088	-0.023	-0.0279	-0.0212	-0.0222	-0.0609	-0.0118	-0.0479	-0.0267	-0.0484	-0.019	-0.0241	-0.144	-0.0428	0.0107	-0.0881	-0.0431	–	-0.0869	-0.0704
